# According to patent publication US20220356472A1, “METHODS AND COMPOSITIONS FOR TYPE 2 DIABETES THERAPY” (Sanford Burnham Prebys Medical Discovery Institute, priority 2019, published 2022):
# Experiments:
# Assay type in all cases: cell-based, mouse
# [1] = tested on: islets isolated from WT C57BL/6 mice; assay: Gene expression in isolated islets treated with compounds
# Method: For this purpose, the effect of a membrane-permeable intracellular Ca^2+-chelator, BAPTA-AM was tested on islets isolated from WT C57BL/6 mice. An overnight incubation with BAPTA-AM (10 μM) reduced both Ins1 and Ins2 mRNA levels (FIG. 6A, “Insulin” panel, Ctrl versus BAPTA-AM). […] On the other hand, tunicamycin (Tm, 0.5 μg/mL) in combination with BAPTA-AM rescued both Ins1 and Ins2 mRNA levels. Concomitantly, Chop and sXBP1 mRNAs, as well as MP mRNA were induced by Tm treatment (FIG. 6A, BAPTA-AM columns versus BAPTA/Tm columns).
# WT and Chop βKO islets = assay: Ins1/Ins2 transcription in independent batch of islets treated with tunicamycin; conditions: tunicamycin 5 μg/mL
# [2] = tested on: islets isolated from WT C57BL/6 mice; assay: Gene expression in isolated islets treated with compounds; conditions: HFn 50 nM, vs Ctrl
# [3] = Tm 0.5 μg/mL in combination with BAPTA-AM, vs BAPTA-AM
# [4] = BAPTA-AM 10 μM, overnight incubation, vs Ctrl
compound,measurement,setting,value
tunicamycin,Chop mRNA,[1]; [3],induced
same,Ins1 mRNA level,[1]; [3],rescued
same,Ins2 mRNA level,[1]; [3],rescued
same,MP mRNA,[1]; [3],induced
same,sXBP1 mRNA,[1]; [3],induced
same,Ins1/Ins2 transcription,WT and Chop βKO islets,positive regulation
CC(=O)OCOC(=O)CN(CC(=O)OCOC(C)=O)c1ccccc1OCCOc1ccccc1N(CC(=O)OCOC(C)=O)CC(=O)OCOC(C)=O [BAPTA-AM],Chop level,[1]; [4],reduced
same,Ins1 mRNA level,[1]; [4],reduced
same,Ins2 mRNA level,[1]; [4],reduced
same,sXBP1 level,[1]; [4],reduced
O=C(CC1NCCCC1O)Cn1cnc2cc(Br)c(Cl)cc2c1=O (centres unmarked) [halofuginone],ATF4 induction,[2],pronounced ATF4 and Chop induction
same,Chop induction,[2],pronounced ATF4 and Chop induction
same,Ins1 mRNA,[2],reduced
same,Ins2 mRNA,[2],reduced
